Laboratory results as given in article PMC9318275, “A Novel ALDH1A1 Inhibitor Blocks Platinum-Induced Senescence and Stemness in Ovarian Cancer” (Cancers, 2022).

Tests used:
ALDH1A1 [1] = target: T1, ALDH1A1 (Homo sapiens, UniProt P00352); experiment: X-ray crystal structure at […] Å (complex with NAD and CM38); type: binding
T1 sequence (P00352 2-501): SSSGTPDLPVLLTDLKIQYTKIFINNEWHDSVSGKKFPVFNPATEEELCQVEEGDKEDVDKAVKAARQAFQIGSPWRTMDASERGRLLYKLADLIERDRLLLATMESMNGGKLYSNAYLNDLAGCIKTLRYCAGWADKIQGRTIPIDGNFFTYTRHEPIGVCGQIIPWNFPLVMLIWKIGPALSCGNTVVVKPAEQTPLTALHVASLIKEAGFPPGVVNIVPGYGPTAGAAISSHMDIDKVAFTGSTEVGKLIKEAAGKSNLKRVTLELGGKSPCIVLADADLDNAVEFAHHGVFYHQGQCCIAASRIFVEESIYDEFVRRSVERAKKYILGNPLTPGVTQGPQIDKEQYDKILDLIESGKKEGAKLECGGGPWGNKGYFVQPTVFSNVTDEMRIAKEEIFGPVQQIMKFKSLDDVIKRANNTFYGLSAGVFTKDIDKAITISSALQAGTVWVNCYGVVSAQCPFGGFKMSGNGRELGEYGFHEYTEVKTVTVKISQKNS

ALDH1A1 [2] = target: T1, ALDH1A1; experiment: purified recombinant enzyme, NAD(P)H formation at […] nm with propionaldehyde as substrate; type: biochemical
ALDH2 = target: T2, ALDH2 (Homo sapiens, UniProt P05091); experiment: biochemical; parameters: NAD(P)H formation at 340 nm, purified recombinant ALDH isoenzymes; details: read-out: ALDH2 % activity versus control at 20 uM
T2 sequence (P05091 1-517): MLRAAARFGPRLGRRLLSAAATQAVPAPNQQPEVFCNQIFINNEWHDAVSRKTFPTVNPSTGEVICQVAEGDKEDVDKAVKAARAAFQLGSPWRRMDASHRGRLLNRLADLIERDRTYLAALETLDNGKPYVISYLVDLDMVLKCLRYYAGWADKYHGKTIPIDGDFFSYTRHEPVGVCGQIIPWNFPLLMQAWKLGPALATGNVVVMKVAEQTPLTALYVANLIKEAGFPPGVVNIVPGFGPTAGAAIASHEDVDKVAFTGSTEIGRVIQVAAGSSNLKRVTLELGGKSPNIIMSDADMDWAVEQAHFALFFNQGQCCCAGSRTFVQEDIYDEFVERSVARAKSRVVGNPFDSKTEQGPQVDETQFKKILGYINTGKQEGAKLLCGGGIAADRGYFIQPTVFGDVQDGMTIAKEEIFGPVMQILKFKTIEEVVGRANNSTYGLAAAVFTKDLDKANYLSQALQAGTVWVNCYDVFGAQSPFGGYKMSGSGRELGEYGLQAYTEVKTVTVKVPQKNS
Method: (§1) Human ALDH1A1, ALDH1A2, and ALDH1A3 were prepared and purified as previously described. The inhibition of ALDH activity by compounds and the IC50 curves were determined by measuring the formation of NAD(P)H spectrophotometrically at 340 nm (molar extinction coefficient of 6200 M^−1 cm^−1) on a Beckman DU-640 as well as a Spectramax 340 PC spectrophotometer (GMI, Ramsey, NJ, USA) using a purified recombinant enzyme. The reaction components for assays with ALDH1A enzymes consisted of 100–200 nM enzyme, 200 µM NAD+, 100 µM propionaldehyde, and 1% DMSO in 25 mM BES buffer at pH 7.5. All assays were performed at 25 °C and were initiated by the addition of substrate after a 2 min incubation period. The purification of and the reaction conditions for the other ALDH isoenzymes were as described in [27]. […] The data were fit to the four-parameter EC50 equation using SigmaPlot (v14), and the values represent the means/SEM of three independent experiments (n = 3). Figure S1. X-Ray Crystallography of CM38 with ALDH1A1 and characterization of inhibitor activ-ity (A). Structure of Human ALDH1A1 with bound compound CM38. […] (B). Inhibition of ALDH activity by compounds and IC50 curves were determined by measuring the formation of NAD(P)H spectro-photometrically at 340 nm using purified recombinant enzymes. (C). […]

ALDH1B1 = target: T3, ALDH1B1 (Homo sapiens, UniProt P30837); experiment: biochemical; parameters: NAD(P)H formation at 340 nm, purified recombinant ALDH isoenzymes; details: read-out: ALDH1B1 % activity versus control at 20 uM
T3 sequence (P30837 1-517): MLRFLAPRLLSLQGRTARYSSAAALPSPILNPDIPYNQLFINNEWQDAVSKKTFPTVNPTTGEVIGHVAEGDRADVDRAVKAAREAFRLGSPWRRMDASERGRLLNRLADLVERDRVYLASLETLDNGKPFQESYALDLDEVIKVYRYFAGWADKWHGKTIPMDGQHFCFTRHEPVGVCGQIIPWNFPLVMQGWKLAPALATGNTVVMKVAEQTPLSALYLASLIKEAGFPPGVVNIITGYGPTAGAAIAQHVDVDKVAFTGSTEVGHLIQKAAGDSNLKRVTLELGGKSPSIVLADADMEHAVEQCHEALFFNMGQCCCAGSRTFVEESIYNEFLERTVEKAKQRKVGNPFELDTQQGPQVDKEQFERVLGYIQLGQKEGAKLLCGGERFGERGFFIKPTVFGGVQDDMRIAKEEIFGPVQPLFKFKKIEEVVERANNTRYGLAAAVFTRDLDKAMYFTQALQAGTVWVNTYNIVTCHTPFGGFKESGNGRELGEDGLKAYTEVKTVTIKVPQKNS
Method: as §1

ALDH1A2 = target: T4, ALDH1A2 (Homo sapiens, UniProt O94788); experiment: biochemical; parameters: NAD(P)H formation at 340 nm, purified recombinant ALDH1A enzyme, propionaldehyde and NAD+; details: read-out: ALDH1A2 % activity versus control at 20 uM
T4 sequence (O94788 1-518): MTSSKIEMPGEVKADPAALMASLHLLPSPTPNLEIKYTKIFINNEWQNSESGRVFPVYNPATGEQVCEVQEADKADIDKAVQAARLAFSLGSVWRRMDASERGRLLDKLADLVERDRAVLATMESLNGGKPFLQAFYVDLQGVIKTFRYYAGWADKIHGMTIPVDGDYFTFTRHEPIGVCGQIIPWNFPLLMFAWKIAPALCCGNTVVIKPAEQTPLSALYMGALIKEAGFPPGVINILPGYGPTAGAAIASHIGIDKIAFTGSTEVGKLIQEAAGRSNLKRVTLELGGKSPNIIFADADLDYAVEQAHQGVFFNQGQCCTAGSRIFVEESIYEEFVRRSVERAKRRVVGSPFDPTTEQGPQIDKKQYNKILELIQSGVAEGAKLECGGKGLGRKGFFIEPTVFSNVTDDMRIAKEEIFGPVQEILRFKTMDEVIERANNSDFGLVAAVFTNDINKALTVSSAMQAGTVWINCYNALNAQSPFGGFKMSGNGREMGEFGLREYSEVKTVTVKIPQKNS
Method: as §1

ALDH1A3 = target: T5, ALDH1A3 (Homo sapiens, UniProt P47895); experiment: biochemical; parameters: NAD(P)H formation at 340 nm, purified recombinant ALDH1A enzyme, propionaldehyde and NAD+; details: read-out: ALDH1A3 % activity versus control at 20 uM
T5 sequence (P47895 1-512): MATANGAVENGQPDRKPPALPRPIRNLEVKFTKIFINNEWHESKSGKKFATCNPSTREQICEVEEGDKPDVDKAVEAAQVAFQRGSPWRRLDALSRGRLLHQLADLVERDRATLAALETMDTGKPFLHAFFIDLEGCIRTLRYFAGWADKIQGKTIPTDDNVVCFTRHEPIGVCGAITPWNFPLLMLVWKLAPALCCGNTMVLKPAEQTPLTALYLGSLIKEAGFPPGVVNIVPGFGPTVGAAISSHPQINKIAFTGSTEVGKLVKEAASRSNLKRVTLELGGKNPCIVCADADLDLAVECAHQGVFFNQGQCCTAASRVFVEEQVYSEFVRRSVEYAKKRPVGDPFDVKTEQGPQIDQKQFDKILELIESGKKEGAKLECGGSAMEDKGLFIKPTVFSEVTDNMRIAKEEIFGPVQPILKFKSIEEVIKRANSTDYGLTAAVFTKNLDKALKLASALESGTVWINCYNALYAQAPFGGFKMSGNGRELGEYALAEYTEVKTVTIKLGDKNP
Method: as §1

Row | SMILES | X-ray crystal structure at 1.8 Å (complex with NAD and CM38) (ALDH1A1 [1]) | IC50 (ALDH1A1 [2]) [nM] | remaining activity at 20 µM (ALDH2) [%] | remaining activity at 20 µM (ALDH1B1) [%] | remaining activity at 20 µM (ALDH1A2) [%] | remaining activity at 20 µM (ALDH1A3) [%]
1 | NC(=O)c1ccc[n+]([C@@H]2O[C@H](COP(=O)([O-])OP(=O)(O)OC[C@H]3O[C@@H](n4cnc5c(N)ncnc54)[C@H](O)[C@@H]3O)[C@@H](O)[C@H]2O)c1 [NAD] | we determined the structure of ALDH1A1 in a complex with both NAD and CM38 by X-ray crystallography |  |  |  |  | 
2 | Cc1c(C(=O)N2CCCCC2)oc2ccc3c(c12)C(=O)CC1(CCCCCC1)O3 [compound 974] |  | 470 | 76 ± 20 | 67 ± 3.9 | 63 ± 4.2 | 85 ± 4
